# According to ChEMBL document CHEMBL1201862, “PubChem BioAssay data set” (2004):
#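 Values below derive from 48-hour exposures of cells grown in 96-well plates, with endpoints linearly interpolated between the two concentrations bracketing the appropriate inhibition level. GI50: concentration for 50% inhibition of growth.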 Active and inactive are the calls of the source. Cut-off read from the data, not from the text of the source: active = GI50 up to about 1.1 µM and inactive = higher.
# Experiments:
# Experiment in all cases: DTP human tumour cell line panel, 48 h
# 786-0 = tested on: 786-0
# A498 = tested on: A498
# A549 = tested on: A549
# ACHN = tested on: ACHN
# BT-549 = tested on: BT-549
# CAKI-1 = tested on: CAKI-1
# CCRF-CEM = tested on: CCRF-CEM
# COLO 205 = tested on: COLO 205
# DU-145 = tested on: DU-145
# EKVX = tested on: EKVX
# HCC 2998 = tested on: HCC 2998
# HCT-116 = tested on: HCT-116
# HCT-15 = tested on: HCT-15
# HL-60 = tested on: HL-60
# HOP-62 = tested on: HOP-62
# Hs-578T = tested on: Hs-578T
# IGROV-1 = tested on: IGROV-1
# K562 = tested on: K562
# KM12 = tested on: KM12
# LOX IMVI = tested on: LOX IMVI
# M14 = tested on: M14
# MCF7 = tested on: MCF7
# MDA-MB-231 = tested on: MDA-MB-231
# MDA-MB-435 = tested on: MDA-MB-435
# MDA-N = tested on: MDA-N
# MOLT-4 = tested on: MOLT-4
# Malme-3M = tested on: Malme-3M
# NCI-H226 = tested on: NCI-H226
# NCI-H460 = tested on: NCI-H460
# NCI-H522 = tested on: NCI-H522
# NCI/ADR-RES = tested on: NCI/ADR-RES
# OVCAR-3 = tested on: OVCAR-3
# OVCAR-4 = tested on: OVCAR-4
# OVCAR-5 = tested on: OVCAR-5
# OVCAR-8 = tested on: OVCAR-8
# PC-3 = tested on: PC-3
# RPMI-8226 = tested on: RPMI-8226
# RXF 393 = tested on: RXF 393
# SF-268 = tested on: SF-268
# SF-295 = tested on: SF-295
# SF-539 = tested on: SF-539
# SK-MEL-28 = tested on: SK-MEL-28
# SK-MEL-2 = tested on: SK-MEL-2
# SK-MEL-5 = tested on: SK-MEL-5
# SK-OV-3 = tested on: SK-OV-3
# SN12C = tested on: SN12C
# SNB-19 = tested on: SNB-19
# SNB-75 = tested on: SNB-75
# SW-620 = tested on: SW-620
# T47D = tested on: T47D
# TK-10 = tested on: TK-10
# U-251 = tested on: U-251
# UACC-257 = tested on: UACC-257
# UACC-62 = tested on: UACC-62
# UO-31 = tested on: UO-31
# HOP-92 = tested on: HOP-92
# HT-29 = tested on: HT-29
# NCI-H23 = tested on: NCI-H23
smiles,measurement,setting,value
[N-]=[N+]=NC1OC(=O)C(Cl)=C1N=P(c1ccccc1)(c1ccccc1)c1ccccc1 (stereo not drawn),GI50,786-0,> 10 µM (inactive)
same,GI50,A498,> 10 µM (inactive)
same,GI50,A549,> 10 µM (inactive)
same,GI50,ACHN,8.63 µM (inactive)
same,GI50,BT-549,> 10 µM (inactive)
same,GI50,CAKI-1,> 10 µM (inactive)
same,GI50,CCRF-CEM,4.3 µM (inactive)
same,GI50,COLO 205,9.27 µM (inactive)
same,GI50,DU-145,> 10 µM (inactive)
same,GI50,EKVX,> 10 µM (inactive)
same,GI50,HCC 2998,> 10 µM (inactive)
same,GI50,HCT-116,6.37 µM (inactive)
same,GI50,HCT-15,7.35 µM
same,GI50,HL-60,3.77 µM (inactive)
same,GI50,HOP-62,> 10 µM (inactive)
same,GI50,Hs-578T,> 10 µM (inactive)
same,GI50,IGROV-1,> 10 µM (inactive)
same,GI50,K562,3.59 µM (inactive)
same,GI50,KM12,7.85 µM (inactive)
same,GI50,LOX IMVI,7.78 µM (inactive)
same,GI50,M14,6.98 µM (inactive)
same,GI50,MCF7,7.13 µM (inactive)
same,GI50,MDA-MB-231,6.44 µM (inactive)
same,GI50,MDA-MB-435,8.17 µM (inactive)
same,GI50,MDA-N,9.27 µM (inactive)
same,GI50,MOLT-4,3.01 µM (inactive)
same,GI50,Malme-3M,> 10 µM (inactive)
same,GI50,NCI-H226,> 10 µM (inactive)
same,GI50,NCI-H460,> 10 µM (inactive)
same,GI50,NCI-H522,6.67 µM (inactive)
same,GI50,NCI/ADR-RES,5.51 µM (inactive)
same,GI50,OVCAR-3,5.9 µM (inactive)
same,GI50,OVCAR-4,9.71 µM (inactive)
same,GI50,OVCAR-5,> 10 µM (inactive)
same,GI50,OVCAR-8,> 10 µM (inactive)
same,GI50,PC-3,2.95 µM (inactive)
same,GI50,RPMI-8226,3.34 µM (inactive)
same,GI50,RXF 393,> 10 µM (inactive)
same,GI50,SF-268,> 10 µM (inactive)
same,GI50,SF-295,7.24 µM (inactive)
same,GI50,SF-539,> 10 µM (inactive)
same,GI50,SK-MEL-28,> 10 µM (inactive)
same,GI50,SK-MEL-2,> 10 µM (inactive)
same,GI50,SK-MEL-5,> 10 µM (inactive)
same,GI50,SK-OV-3,> 10 µM (inactive)
same,GI50,SN12C,> 10 µM (inactive)
same,GI50,SNB-19,> 10 µM (inactive)
same,GI50,SNB-75,6.84 µM (inactive)
same,GI50,SW-620,> 10 µM (inactive)
same,GI50,T47D,> 10 µM (inactive)
same,GI50,TK-10,> 10 µM (inactive)
same,GI50,U-251,> 10 µM (inactive)
same,GI50,UACC-257,> 10 µM (inactive)
same,GI50,UACC-62,> 10 µM (inactive)
same,GI50,UO-31,> 10 µM (inactive)
Cc1ccc(Nc2c3c(c(C#N)c4nc5ccccc5n24)CCCC3)cc1,GI50,786-0,26.7 µM (inactive)
same,GI50,A549,12.5 µM (inactive)
same,GI50,ACHN,21.6 µM (inactive)
same,GI50,BT-549,35.8 µM (inactive)
same,GI50,CAKI-1,25.4 µM (inactive)
same,GI50,CCRF-CEM,6.05 µM (inactive)
same,GI50,COLO 205,18.3 µM (inactive)
same,GI50,DU-145,52.7 µM (inactive)
same,GI50,EKVX,17.3 µM (inactive)
same,GI50,HCC 2998,17.6 µM (inactive)
same,GI50,HCT-116,10.9 µM (inactive)
same,GI50,HCT-15,16.9 µM
same,GI50,HL-60,5.53 µM (inactive)
same,GI50,HOP-92,17.1 µM (inactive)
same,GI50,HT-29,13.6 µM (inactive)
same,GI50,Hs-578T,> 100 µM (inactive)
same,GI50,IGROV-1,28.2 µM (inactive)
same,GI50,K562,4.39 µM (inactive)
same,GI50,KM12,> 100 µM (inactive)
same,GI50,LOX IMVI,22.1 µM (inactive)
same,GI50,M14,21.6 µM (inactive)
same,GI50,MCF7,9.89 µM (inactive)
same,GI50,MDA-MB-231,22.5 µM (inactive)
same,GI50,MDA-MB-435,18.2 µM (inactive)
same,GI50,MDA-N,28.7 µM (inactive)
same,GI50,MOLT-4,3.73 µM (inactive)
same,GI50,Malme-3M,30.7 µM (inactive)
same,GI50,NCI-H226,21.7 µM (inactive)
same,GI50,NCI-H23,22.4 µM (inactive)
same,GI50,NCI-H460,16.9 µM (inactive)
same,GI50,NCI-H522,14.3 µM (inactive)
same,GI50,NCI/ADR-RES,21.3 µM (inactive)
same,GI50,OVCAR-3,11.1 µM (inactive)
same,GI50,OVCAR-4,20.7 µM (inactive)
same,GI50,OVCAR-5,34 µM (inactive)
same,GI50,OVCAR-8,18 µM (inactive)
same,GI50,PC-3,6.64 µM (inactive)
same,GI50,SF-268,> 100 µM (inactive)
same,GI50,SF-295,13 µM (inactive)
same,GI50,SF-539,19.4 µM (inactive)
same,GI50,SK-MEL-28,22.1 µM (inactive)
same,GI50,SK-MEL-2,13.1 µM (inactive)
same,GI50,SK-MEL-5,10.7 µM (inactive)
same,GI50,SK-OV-3,38 µM (inactive)
same,GI50,SN12C,17.4 µM (inactive)
same,GI50,SNB-19,38.4 µM (inactive)
same,GI50,SW-620,15.4 µM (inactive)
same,GI50,T47D,13.7 µM (inactive)
same,GI50,TK-10,25.5 µM (inactive)
same,GI50,U-251,17.5 µM (inactive)
same,GI50,UACC-257,17.7 µM (inactive)
same,GI50,UACC-62,14.7 µM (inactive)
same,GI50,UO-31,12 µM (inactive)
CN(C)c1ccc(/N=N/c2ccncc2)cc1,GI50,786-0,> 100 µM (inactive)
same,GI50,A498,> 100 µM (inactive)
same,GI50,A549,> 100 µM (inactive)
same,GI50,ACHN,> 100 µM (inactive)
same,GI50,BT-549,84.1 µM (inactive)
same,GI50,CAKI-1,> 100 µM (inactive)
same,GI50,CCRF-CEM,> 100 µM (inactive)
same,GI50,COLO 205,56.6 µM (inactive)
same,GI50,DU-145,> 100 µM (inactive)
same,GI50,EKVX,18.5 µM (inactive)
same,GI50,HCC 2998,22.6 µM (inactive)
same,GI50,HCT-116,> 100 µM (inactive)
same,GI50,HCT-15,> 100 µM
same,GI50,HL-60,> 100 µM (inactive)
same,GI50,HOP-62,> 100 µM (inactive)
same,GI50,HOP-92,17.6 µM (inactive)
same,GI50,HT-29,95.1 µM (inactive)
same,GI50,Hs-578T,> 100 µM (inactive)
same,GI50,IGROV-1,> 100 µM (inactive)
same,GI50,K562,43.5 µM (inactive)
same,GI50,KM12,> 100 µM (inactive)
same,GI50,LOX IMVI,93.1 µM (inactive)
same,GI50,M14,> 100 µM (inactive)
same,GI50,MCF7,40.8 µM (inactive)
same,GI50,MDA-MB-231,> 100 µM (inactive)
same,GI50,MDA-MB-435,28.8 µM (inactive)
same,GI50,MDA-N,46 µM (inactive)
same,GI50,MOLT-4,39.8 µM (inactive)
same,GI50,Malme-3M,> 100 µM (inactive)
same,GI50,NCI-H226,64.4 µM (inactive)
same,GI50,NCI-H23,> 100 µM (inactive)
same,GI50,NCI-H460,> 100 µM (inactive)
same,GI50,NCI/ADR-RES,31.2 µM (inactive)
same,GI50,OVCAR-3,> 100 µM (inactive)
same,GI50,OVCAR-4,48.1 µM (inactive)
same,GI50,OVCAR-5,> 100 µM (inactive)
same,GI50,OVCAR-8,> 100 µM (inactive)
same,GI50,PC-3,> 100 µM (inactive)
same,GI50,RPMI-8226,47.1 µM (inactive)
same,GI50,RXF 393,> 100 µM (inactive)
same,GI50,SF-268,85.7 µM (inactive)
same,GI50,SF-295,> 100 µM (inactive)
same,GI50,SF-539,> 100 µM (inactive)
same,GI50,SK-MEL-28,> 100 µM (inactive)
same,GI50,SK-MEL-5,67 µM (inactive)
same,GI50,SK-OV-3,40 µM (inactive)
same,GI50,SN12C,> 100 µM (inactive)
same,GI50,SNB-19,> 100 µM (inactive)
same,GI50,SW-620,> 100 µM (inactive)
same,GI50,T47D,> 100 µM (inactive)
same,GI50,TK-10,> 100 µM (inactive)
same,GI50,U-251,> 100 µM (inactive)
same,GI50,UACC-257,> 100 µM (inactive)
same,GI50,UACC-62,87.5 µM (inactive)
same,GI50,UO-31,> 100 µM (inactive)
